What follows are molecules tested against T1, human PTH1 receptor (Homo sapiens, UniProt Q03431) (assay: In vitro cAMP signal activity in HKRK-B7 cells (LLC-PK1 cells overexpressing the human PTH1 receptor)). Conditions: HKRK-B7 cells; compound at 1×10^−3 M; cAMP produced as percentage of that produced by hPTH(1-34) at 100 nM.
T1 sequence (Q03431 27-593): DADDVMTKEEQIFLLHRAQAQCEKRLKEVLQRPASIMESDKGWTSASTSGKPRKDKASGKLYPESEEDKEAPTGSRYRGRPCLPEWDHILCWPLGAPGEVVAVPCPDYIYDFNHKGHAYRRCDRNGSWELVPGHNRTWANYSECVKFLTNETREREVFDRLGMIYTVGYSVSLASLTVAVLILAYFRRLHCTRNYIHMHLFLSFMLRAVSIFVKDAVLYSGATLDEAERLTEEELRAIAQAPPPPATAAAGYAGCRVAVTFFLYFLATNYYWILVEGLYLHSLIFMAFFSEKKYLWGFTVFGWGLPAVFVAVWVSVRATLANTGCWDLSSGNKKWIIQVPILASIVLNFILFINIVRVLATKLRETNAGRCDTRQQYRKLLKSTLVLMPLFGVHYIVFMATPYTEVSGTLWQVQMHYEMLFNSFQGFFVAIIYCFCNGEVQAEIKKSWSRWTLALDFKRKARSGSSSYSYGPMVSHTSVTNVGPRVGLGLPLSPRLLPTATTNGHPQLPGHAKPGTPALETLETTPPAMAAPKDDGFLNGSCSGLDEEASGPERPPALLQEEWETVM
Assay type: cell-based

Row | Compound | cAMP production activity (%)
1 | Cc1cc(C(=O)N2CCC(F)C2)ccc1CCS(=O)(=O)N1CCC2(CC1)N=C(c1cccc(C(F)(F)F)c1)NC2=O (centres unmarked) [Compound 378, 8-{2-[4-(3-fluoro-pyrrolidine-1-carbonyl)-2-methyl-phenyl]-ethanesulfonyl}-2-(3-trifluoromethyl-phenyl)-1,3,8-triaza-spiro[4.5]dec-1-en-4-one] | 60
2 | CC(C)(C)C1=NC2(CCN(S(=O)(=O)CCc3cccc4ccccc34)CC2)C(=O)N1 [Compound 36, 2-tert-butyl-8-(2-naphthalen-1-yl-ethanesulfonyl)-1,3,8-triaza-spiro[4.5]dec-1-en-4-one] | 3.5
3 | Cc1cc(CN2C(=O)NC(C)(C)C2=O)cc(C)c1CCS(=O)(=O)N1CCC2(CC1)N=C(C1CCC(C)CC1)NC2=O (centres unmarked) [Compound 780, 3-(3,5-dimethyl-4-{2-[2-(4-methyl-cyclohexyl)-4-oxo-1,3,8-triaza-spiro[4.5]dec-1-ene-8-sulfonyl]-ethyl}-benzyl)-5,5-dimethyl-imidazolidine-2,4-dione] | 48
4 | Cc1cc(S(=O)(=O)N2CCC3(CC2)N=C(C2CCCCC2)NC3=O)c(C)s1 [Compound 64, 2-cyclohexyl-8-(2,5-dimethyl-thiophene-3-sulfonyl)-1,3,8-triaza-spiro[4.5]dec-1-en-4-one] | 45
5 | CC1CCC(C2=NC3(CCN(S(=O)(=O)CCCc4cccc5[nH]ccc45)CC3)C(=O)N2)CC1 (centres unmarked) [Compound 311, 8-[3-(1H-indol-4-yl)-propane-1-sulfonyl]-2-(4-methyl-cyclohexyl)-1,3,8-triaza-spiro[4.5]dec-1-en-4-one] | 67
6 | O=C1NC(C2CCCCC2)=NC12CCN(S(=O)(=O)CCc1ccccc1C(F)(F)F)CC2 [Compound 323, 2-Cyclohexyl-8-[2-(2-trifluoromethyl-phenyl)-ethanesulfonyl]-1,3,8-triaza-spiro[4.5]dec-1-en-4-one] | 53
7 | Cc1cccc(C2=NC3(CCN(S(=O)(=O)CCc4ccc(C(=O)N(C)C)cc4C)CC3)C(=O)N2)c1 [Compound 84, 3,N,N-trimethyl-4-[2-(4-oxo-2-m-tolyl-1,3,8-triaza-spiro[4.5]dec-1-ene-8-sulfonyl)-ethyl]-benzamide] | 51
8 | O=C(CNc1ccc(CCS(=O)(=O)N2CCC3(CC2)N=C(C2CCCCC2)NC3=O)c(C(F)(F)F)c1)NCCCCO [Compound 660, 2-{4-[2-(2-cyclohexyl-4-oxo-1,3,8-triaza-spiro[4.5]dec-1-ene-8-sulfonyl)-ethyl]-3-trifluoromethyl-phenylamino}-N-(4-hydroxy-butyl)-acetamide] | 60
9 | O=C1NC(C2CCCCC2)=NC12CCN(S(=O)(=O)CCCCc1cccc3[nH]ccc13)CC2 [Compound 263, 2-cyclohexyl-8-[4-(1H-indol-4-yl)-butane-1-sulfonyl]-1,3,8-triaza-spiro[4.5]dec-1-en-4-one] | 41
10 | CC(=O)Nc1ccc(CCS(=O)(=O)N2CCC3(CC2)N=C(C2CCC(C)CC2)NC3=O)c(OC(C)C)c1 (centres unmarked) [Compound 812, N-(3-isopropoxy-4-{2-[2-(4-methyl-cyclohexyl)-4-oxo-1,3,8-triaza-spiro[4.5]dec-1-ene-8-sulfonyl]-ethyl}-phenyl)-acetamide] | 105

Results, then the molecule that gave them:

Row | cAMP production activity (%) | Compound
11 | 59 | CONC(=O)Cc1ccc(CCS(=O)(=O)N2CCC3(CC2)N=C(C2CCC(C)CC2)NC3=O)c(C)c1 (centres unmarked) [Compound 1388, N-methoxy-2-(3-methyl-4-{2-[2-(4-methyl-cyclohexyl)-4-oxo-1,3,8-triaza-spiro[4.5]dec-1-ene-8-sulfonyl]-ethyl}-phenyl)-acetamide]
12 | 77 | Cc1cc(N2C(=O)CNC2=O)ccc1CCS(=O)(=O)N1CCC2(CC1)N=C(C1CCC(/C=C/C(F)F)CC1)NC2=O (centres unmarked) [Compound 945, 3-[4-(2-{2-[4-((E)-3,3-difluoro-propenyl)-cyclohexyl]-4-oxo-1,3,8-triaza-spiro[4.5]dec-1-ene-8-sulfonyl}-ethyl)-3-methyl-phenyl]-imidazolidine-2,4-dione]
13 | 99 | Cc1cc(C(=O)N2CCC(C)(O)CC2)cc(C)c1/C=C/S(=O)(=O)N1CCC2(CC1)N=C(c1ccc(C(F)(F)F)c(Cl)c1)NC2=O [Compound 1188, 2-(3-chloro-4-trifluoromethyl-phenyl)-8-{(E)-2-[4-(4-hydroxy-4-methyl-piperidine-1-carbonyl)-2,6-dimethyl-phenyl]-ethenesulfonyl}-1,3,8-triaza-spiro[4.5]dec-1-en-4-one]
14 | 96 | Cc1cc(C(=O)N2CCC(O)(CF)CC2)cc(C)c1/C=C/S(=O)(=O)N1CCC2(CC1)N=C(c1ccc(C(F)(F)F)c(OC(C)(C)C(F)(F)F)c1)NC2=O [Compound 1266, 8-{(E)-2-[4-(4-fluoromethyl-4-hydroxy-piperidine-1-carbonyl)-2,6-dimethyl-phenyl]-ethenesulfonyl}-2-[3-(2,2,2-trifluoro-1,1-dimethyl-ethoxy)-4-trifluoromethyl-phenyl]-1,3,8-triaza-spiro[4.5]dec-1-en-4-one]
15 | 68 | CC(=O)Nc1ccc(CCS(=O)(=O)N2CCC3(CC2)N=C(C2CCC(COCC(F)(F)F)CC2)NC3=O)c(C)c1 (centres unmarked) [Compound 919, N-[3-methyl-4-(2-{4-oxo-2-[4-(2,2,2-trifluoro-ethoxymethyl)-cyclohexyl]-1,3,8-triaza-spiro[4.5]dec-1-ene-8-sulfonyl}-ethyl)-phenyl]-acetamide]
16 | 50 | CONC(=O)Cc1ccc(/C=C/S(=O)(=O)N2CCC3(CC2)N=C(C2CCC(C)CC2)NC3=O)c(C)c1 (centres unmarked) [Compound 988, N-methoxy-2-(3-methyl-4-{(E)-2-[2-(4-methyl-cyclohexyl)-4-oxo-1,3,8-triaza-spiro[4.5]dec-1-ene-8-sulfonyl]-vinyl}-phenyl)-acetamide]
17 | 117 | Cc1cc(N(C)C(N)=O)cc(C)c1CCS(=O)(=O)N1CCC2(CC1)N=C(C1CC(C)(C)CC(C)(C)C1)NC2=O [Compound 1298, 1-(3,5-Dimethyl-4-{2-[4-oxo-2-(3,3,5,5-tetramethyl-cyclohexyl)-1,3,8-triaza-spiro[4.5]dec-1-ene-8-sulfonyl]-ethyl}-phenyl)-1-methyl-urea]
18 | 98 | [2H]C([2H])([2H])C([2H])([2H])C1=CC[C@H](C2=NC3(CCN([S@TB18](=O)(=O)CCc4c(C)cc(N(C)C(N)=O)cc4C)CC3)C(=O)N2)CC1 [Compound 1149, 1-(4-{2-[2-(4-[1,1,2,2,2-^2H5]ethyl-cyclohex-3-enyl)-4-oxo-1,3,8-triaza-spiro[4.5]dec-1-ene-8-sulfonyl]-ethyl}-3,5-dimethyl-phenyl)-1-methyl-urea]
19 | 50 | Cc1cc(NC(=O)NCC(=O)O)ccc1/C=C/S(=O)(=O)N1CCC2(CC1)N=C(C1CCC(C)CC1)NC2=O (centres unmarked) [Compound 1169, [3-(3-methyl-4-{(E)-2-[2-(4-methyl-cyclohexyl)-4-oxo-1,3,8-triaza-spiro[4.5]dec-1-ene-8-sulfonyl]-vinyl}-phenyl)-ureido]-acetic acid]
20 | 82 | CNc1cc(C)c(CCS(=O)(=O)N2CCC3(CC2)N=C(c2cccc(SC(F)(F)F)c2)NC3=O)c(C)c1 [Compound 1036, 8-[2-(2,6-dimethyl-4-methylamino-phenyl)-ethanesulfonyl]-2-(3-trifluoromethylsulfanyl-phenyl)-1,3,8-triaza-spiro[4.5]dec-1-en-4-one]

— patent US9169254B2, “Spiroimidazolone derivative” (Chugai Seiyaku Kabushiki Kaisha, priority 2009, dated 2015)
